Entries after “also recorded” stand apart in the source; their conditions may differ.
Tests used:
HT1080 cells = test: Bulk telomere length, Southern blot, HT1080; assay type: cell-based, human
ATM = test: Western blot of ATM signaling (phospho-Kap1, phospho-ATM); assay type: cell-based, mouse
Description: (§1) To probe the role of ATM, the ADDIT assay was used in cells treated with the ATM specific inhibitor KU55933 (as described in Hickson et al., 2004, Cancer Research 64, 9152-9159) or with siRNA to ATM. To confirm the inhibition of ATM, the phosphorylation level was examined of the ATM substrate Kap1 and, as a control, an ATR kinase substrate Chk1 by western blot. Cultured cells were pretreated with KU55933, siA™ or DMSO control and then exposed to camptothecin (CPT), a DNA damaging agent.
To further probe the role of ATM in telomere length, ATM was activated in cultured cells. […] PARP is an essential enzyme involved in recognition and repair of DNA breaks. […] Similar to wild-type control, the most common class of telomere addition was Class 3 that creates the most complementarity between the 3′ end and the mTR sequence (Table 3). To examine whether this stimulation of telomere elongation acts through ATM, epistasis was examined by treating cells with both Olaparib and KU55933.
To detect phospho-proteins, 1× lysis buffer made of final concentration of 1×RIPA™ (Cell Signaling, #98016S), 1× protease inhibitor cocktail, 1× PhosSTOP™ (Roche, 4906845001) was added directly to cells on the dish after washing with PBS. Protein concentration was measured with a BCA protein assay kit (Thermo, #23227). Typically 10 μg of protein from each sample was applied to SDS-PAGE gels (Biorad, #456-1084) and transferred to nitrocellulose membranes in transfer buffer. After blocking with the Odyssey™ blocking buffer (LI-COR, #927-40000), membranes were incubated at 4° C. overnight or 1 hr at RT with the following primary antibodies: anti-phospho-Kap1 (Bethyl Lab, #A300-767A); anti-phospho-CHK1 (Cell Signaling, #2348S); anti-phospho-ATM (Millipore, #05-740); anti-HA (Santa Cruz, #sc-7392); anti-Actin (Santa Cruz, #sc-1616); anti-PAR (Trevigen, #4335-MC-100). […] Band intensities were quantified using the Odyssey™ software (LI-COR) and normalized to Actin levels. […]

human HCT116 = test: Bulk telomere length, Southern blot, HCT116; assay type: cell-based; conditions: HCT116 cells
[1] = tested on: ATR kinase substrate Chk1; test: Western blot of ATR kinase substrate Chk1 phosphorylation; assay type: cell-based, mouse; conditions: cells pretreated, then exposed to camptothecin (CPT)
Description: as §1
To detect phospho-proteins, 1× lysis buffer made of final concentration of 1×RIPA™ (Cell Signaling, #98016S), 1× protease inhibitor cocktail, 1× PhosSTOP™ (Roche, 4906845001) was added directly to cells on the dish after washing with PBS. Protein concentration was measured with a BCA protein assay kit (Thermo, #23227). Typically 10 μg of protein from each sample was applied to SDS-PAGE gels (Biorad, #456-1084) and transferred to nitrocellulose membranes in transfer buffer. […] Band intensities were quantified using the Odyssey™ software (LI-COR) and normalized to Actin levels. […]

SL13 cells = test: Telomere Southern blot after lentiviral overexpression of mTR and mTERT; assay type: cell-based, mouse; conditions: SL13 cells transduced with lentivirus expressing mTR and mTERT; day 6
telomerase = biological target: T1, telomerase (Homo sapiens, UniProt O14746); test: Direct telomerase activity assay in lysates of treated cells; assay type: cell-based; conditions: 293TREx-0611 cells; 30 μM KU55933 or 5 μM Olaparib for two hours
T1 construct: expressed in transfected cells; host or cells: 293TREx-0611 cells overexpressing TPP1, POT1 and hTERT, transfected with U1-hTR; whole cell lysate
T1 sequence (O14746 whole entry): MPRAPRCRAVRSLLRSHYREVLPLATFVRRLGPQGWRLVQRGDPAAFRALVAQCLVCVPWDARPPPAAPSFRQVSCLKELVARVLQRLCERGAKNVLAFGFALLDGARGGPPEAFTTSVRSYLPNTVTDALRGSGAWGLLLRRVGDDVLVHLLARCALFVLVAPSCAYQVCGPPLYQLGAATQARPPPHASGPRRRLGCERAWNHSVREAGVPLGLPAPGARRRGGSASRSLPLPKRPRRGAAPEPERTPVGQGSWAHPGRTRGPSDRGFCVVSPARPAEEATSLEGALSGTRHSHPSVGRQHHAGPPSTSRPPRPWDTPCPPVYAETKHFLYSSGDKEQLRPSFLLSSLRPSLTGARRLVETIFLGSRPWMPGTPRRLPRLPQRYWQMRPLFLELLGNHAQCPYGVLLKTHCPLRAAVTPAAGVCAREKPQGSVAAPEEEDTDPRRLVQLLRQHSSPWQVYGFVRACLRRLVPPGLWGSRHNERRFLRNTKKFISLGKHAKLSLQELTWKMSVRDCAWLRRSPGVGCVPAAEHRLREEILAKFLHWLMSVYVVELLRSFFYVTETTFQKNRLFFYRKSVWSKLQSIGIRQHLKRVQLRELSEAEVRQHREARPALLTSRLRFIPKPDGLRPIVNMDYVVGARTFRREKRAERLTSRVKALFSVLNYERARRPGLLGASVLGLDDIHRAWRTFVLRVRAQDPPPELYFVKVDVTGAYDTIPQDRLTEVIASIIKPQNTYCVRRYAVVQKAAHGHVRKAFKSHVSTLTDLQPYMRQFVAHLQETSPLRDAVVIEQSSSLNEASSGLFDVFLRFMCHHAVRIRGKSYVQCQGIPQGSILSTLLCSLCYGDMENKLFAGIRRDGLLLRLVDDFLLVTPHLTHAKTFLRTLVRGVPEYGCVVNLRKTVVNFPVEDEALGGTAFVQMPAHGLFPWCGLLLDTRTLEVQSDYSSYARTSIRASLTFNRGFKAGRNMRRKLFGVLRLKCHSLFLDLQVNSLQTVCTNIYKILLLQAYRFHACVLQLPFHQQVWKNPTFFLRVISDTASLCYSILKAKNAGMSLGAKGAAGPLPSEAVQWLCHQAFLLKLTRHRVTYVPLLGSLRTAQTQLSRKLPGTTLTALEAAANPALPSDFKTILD
T1 sequence (O60832 whole entry partner): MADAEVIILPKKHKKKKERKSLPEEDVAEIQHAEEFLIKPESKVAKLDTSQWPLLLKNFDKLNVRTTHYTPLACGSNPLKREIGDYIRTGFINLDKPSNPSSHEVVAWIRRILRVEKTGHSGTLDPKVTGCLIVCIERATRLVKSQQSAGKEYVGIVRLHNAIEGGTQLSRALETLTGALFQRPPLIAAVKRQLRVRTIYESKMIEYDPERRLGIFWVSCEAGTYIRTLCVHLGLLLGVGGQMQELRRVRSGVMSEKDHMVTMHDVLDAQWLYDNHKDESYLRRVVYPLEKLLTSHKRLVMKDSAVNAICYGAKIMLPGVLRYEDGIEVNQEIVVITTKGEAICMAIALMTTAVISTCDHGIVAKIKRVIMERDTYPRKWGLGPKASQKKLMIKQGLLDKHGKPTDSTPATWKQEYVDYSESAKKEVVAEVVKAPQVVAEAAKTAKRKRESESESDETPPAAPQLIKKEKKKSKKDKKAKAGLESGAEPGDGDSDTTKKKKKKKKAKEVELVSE
T1 sequence (Q9NPE3 whole entry partner): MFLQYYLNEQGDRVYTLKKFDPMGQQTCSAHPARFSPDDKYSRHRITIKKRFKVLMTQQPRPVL
T1 sequence (Q9NX24 whole entry partner): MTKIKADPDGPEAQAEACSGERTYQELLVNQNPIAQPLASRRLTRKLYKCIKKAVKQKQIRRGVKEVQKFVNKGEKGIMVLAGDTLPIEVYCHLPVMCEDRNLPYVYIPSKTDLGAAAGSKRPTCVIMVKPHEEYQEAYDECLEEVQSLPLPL
T1 sequence (Q9NY12 whole entry partner): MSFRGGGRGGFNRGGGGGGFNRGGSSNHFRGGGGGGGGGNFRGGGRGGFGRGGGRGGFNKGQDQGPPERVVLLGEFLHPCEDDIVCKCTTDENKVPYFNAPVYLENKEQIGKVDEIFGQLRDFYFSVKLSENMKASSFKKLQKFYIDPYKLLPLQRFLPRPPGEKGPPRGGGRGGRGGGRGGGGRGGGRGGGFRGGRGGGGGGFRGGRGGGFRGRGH
Method: Telomerase is known to be phosphorylated, so whether the KU55933 or Olaparib treatment of cells might directly affect telomerase activity was examined. […] ATM kinase is a positive regulator of telomere elongation in both mouse and human cells, and the effects of ATM inhibition are not due to inhibition of telomerase enzyme activity.
Telomerase activity was assayed in whole cell lysates with a modified protocol (Nandakumar et al., 2012, Nature 492, 285-289). 293TREx-0611 cells overexpressing TPP1, POT1, and hTERT were seeded (3×10^5 cells) per well in a poly-D-Lysine coated 6-well plate. The next day, cells were transfected with U1-hTR using Lipofectamine™ 3000 and incubated overnight. Then, they were treated with 30 μM KU55933, 5 μM Olaparib, or DMSO for two hours before harvesting in 100 μl 1×CHAPS. Cells were lysed on ice for 30 minutes, vortexing occasionally, and cleared by spinning (8000 rpm, 20 min, 4° C.). For negative controls, 25 μl cleared lysate was incubated at 65° C. with 1 μl RNaseA (1 mg/ml) for 10 minutes. For direct telomerase assays, lysates were incubated with primer a5 (Wang et al., 2007) in 1× telomerase buffer (50 mM Tris-Cl, 30 mM KCl, 1 mM MgCl2, 1 mM spermidine), 0.5 mM dTTP, 0.5 mM dATP, 2.92 μM dGTP, and 0.33 μM α32P-dGTP at 30° C. Reactions were stopped at 10 or 15 minutes with 20 mM EDTA, 10 mM Tris spiked with 500 cpm end-labeled 18mer. […]

tankyrases = conditions: in vitro assays; cited from earlier work
PARP1-4 = conditions: in vitro assays; cited from earlier work
PARP1 = test: Western blot of PARylation with antibody against poly ADP-ribose; assay type: cell-based; conditions: antibody directed against poly ADP-ribose
Method: To examine activation of ATM kinase pathway in response to PARP1 inhibition the phosphorylation levels of KAP1, in response to the PARP1 inhibitor, Olaparib was measured.
To detect phospho-proteins, 1× lysis buffer made of final concentration of 1×RIPA™ (Cell Signaling, #98016S), 1× protease inhibitor cocktail, 1× PhosSTOP™ (Roche, 4906845001) was added directly to cells on the dish after washing with PBS. Protein concentration was measured with a BCA protein assay kit (Thermo, #23227). Typically 10 μg of protein from each sample was applied to SDS-PAGE gels (Biorad, #456-1084) and transferred to nitrocellulose membranes in transfer buffer. After blocking with the Odyssey™ blocking buffer (LI-COR, #927-40000), membranes were incubated at 4° C. overnight or 1 hr at RT with the following primary antibodies: anti-phospho-Kap1 (Bethyl Lab, #A300-767A); anti-phospho-CHK1 (Cell Signaling, #2348S); anti-phospho-ATM (Millipore, #05-740); anti-HA (Santa Cruz, #sc-7392); anti-Actin (Santa Cruz, #sc-1616); anti-PAR (Trevigen, #4335-MC-100). The following day, blots are washed with 1×PBS− T for 3×15 minutes, and then incubated with secondary antibodies conjugated to near-infrared dyes (IRDye® 680 anti-goat, 800 anti-rabbit, 800 anti-mouse, LI-COR). […] Band intensities were quantified using the Odyssey™ software (LI-COR) and normalized to Actin levels. […]

SMILES | bulk telomere length (HT1080 cells) | Kap1-S824 phosphorylation (ATM; cells pretreated, then exposed to camptothecin (CPT)) | bulk telomere length (human HCT116) | Chk1-S345 phosphorylation [1] | telomere elongation on overexpression of telomerase (Southern blot) (SL13 cells) | telomerase activity (telomerase) | effect on tankyrases (tankyrases) | specificity to PARP1-4 (PARP1-4) | phosphorylation of ATM-S1981 (ATM; Olaparib-treated cells) | Kap1 phosphorylation in response to PARP1 inhibition (ATM; compared to DMSO-treated control cells) | PARylation (PARP1)
O=c1cc(-c2cccc3c2Sc2ccccc2S3)oc(N2CCOCC2)c1 [KU55933] | shortens bulk telomeres | blocked Kap1 phosphorylation | telomere shortening | not Chk1 phosphorylation | blocked this telomere elongation | no change in telomerase activity | – | – | – | – | –
O=C(c1cc(Cc2n[nH]c(=O)c3ccccc23)ccc1F)N1CCN(C(=O)C2CC2)CC1 [Olaparib] | – | – | – | – | – | no change in telomerase activity | little effect on tankyrases | highly specific to PARP1-4 | increased phosphorylation of ATM-S1981 | increased ATM phosphorylation of Kap1; also recorded: increased level of Kap1 phosphorylation | inhibited PARylation

Reference: US20180110777A1, “METHOD FOR REGULATION OF TELOMERE LENGTH” (The Johns Hopkins University, priority 2015, published 2018)
